Columns and labels:
[1] = system: apolipoprotein E-deficient C57/B1J (apo E KO) mice; assay: Aortic atherosclerosis quantification (Oil Red O, en face, aortic arch) in ovariectomized apoE KO mice on a high fat diet; format: in vivo; details: atherogenic diet 6 weeks, oral dosing in feed, EE 12 μg/kg/d, Examples 3 or 5 at 10 or 25 mg/kg/d, N=12
Method: All animal procedures were performed under strict compliance to IACUC guidelines. Four to six-week old female apolipoprotein E-deficient C57/B1J (apo E KO) mice were ovariectomized by the vendor (Taconic) and delivered to Wyeth within 2 days of surgery. The animals were housed in shoe-box cages and were allowed ad lib food and water. After 3 days acclimation, the animals were randomized by weight into 8 groups (N=12 mice per group). The animals were dosed in the feed with the indicated compounds during the entire course of the study. Dosing at the indicated levels was achieved by blending the compounds with a sucrose vehicle (30 g per 2 kg feed) prior to mixing into the feed. Ethinyl estradiol was used as a positive reference compound and was dosed at 12 μg/kg/d. […] The quantity of compound added to the feed was based on the food consumption rate and the body weights of the animals, which was determined every week. […]
Aortic Atherosclerosis Quantification-The mice were euthanized by anesthesia overdose and the vascular tree was perfused first with 2 ml phosphate buffered saline (pH 7.4), then with 2 ml formalin. For quantification of aortic lesions, aortas were carefully isolated and placed in formalin fixative for 48-72 hours before handling. […] The lesions were quantified en face after staining along the aortic arch using the Image-Pro Plus, Media Cybernetics software. […]

[2] = Lipoprotein determinations (total cholesterol, VLDL, HDL by FPLC) in ovariectomized apoE KO mice on a high fat diet; format: in vivo; details: atherogenic diet 6 weeks, oral dosing in feed
Method: All animal procedures were performed under strict compliance to IACUC guidelines. Four to six-week old female apolipoprotein E-deficient C57/B1J (apo E KO) mice were ovariectomized by the vendor (Taconic) and delivered to Wyeth within 2 days of surgery. The animals were housed in shoe-box cages and were allowed ad lib food and water. After 3 days acclimation, the animals were randomized by weight into 8 groups (N=12 mice per group). The animals were dosed in the feed with the indicated compounds during the entire course of the study. Dosing at the indicated levels was achieved by blending the compounds with a sucrose vehicle (30 g per 2 kg feed) prior to mixing into the feed. Ethinyl estradiol was used as a positive reference compound and was dosed at 12 μg/kg/d. Other groups of animals were dosed with the compounds of Example 3 or Example 5 at either 10 or 25 mg/kg/d. Control animals received vehicle (sucrose) alone in the feed. The quantity of compound added to the feed was based on the food consumption rate and the body weights of the animals, which was determined every week. The feeders employed prevented any spillage, so that the food consumption rate was accurate. The animals were fed a Casein-based rodent chow meal (Purina #5K96M) for the first week of the study. The animals were then challenged with a casein-based high fat (HF) diet for week 2 to week 7 of the study. The HF diet (#591-A) was prepared by Purina and contained 1.5% cholesterol, 20% fat as cocoa butter and contained no cholic acid. At the end of the study period, the animals were euthanized and plasma samples obtained. The aortas were perfused via the left ventricle first with buffered saline and then with neutral buffered 10% formalin solution.
Lipoprotein Determinations—Total cholesterol and triglycerides were determined using enzymatic methods with commercially available kits from Boehringer Mannheim and Wako Biochemicals, respectively, and analyzed with the Boehringer Mannheim Hitachii 911 Analyzer. Separation and quantitation of plasma lipoproteins were performed using FPLC size fractionation. Briefly, 50-100 μl serum was filtered and injected into Superose 12 and Superose 6 columns connected in series and eluted at a constant flow rate using 0.15 M NaCl. Areas of each curve representing VLDL, LDL and HDL were integrated using Waters Millennium™ software, and each lipoprotein fraction was quantified by multiplying the Total Cholesterol value by the relative percent area of each respective chromatogram peak.

| melting point [°C] | SMILES | extent of aortic fatty streak involvement [1] | VLDL-C (FIG. 2) [2] | serum HDL-C (FIG. 2) [2] | serum total cholesterol (FIG. 2) [2] |
| --- | --- | --- | --- | --- | --- |
| 188 | CC1c2cc(F)ccc2-c2ccccc2N1S(=O)(=O)c1ccc(O)cc1 (stereo not shown) [Example 3, 4-[(8-Fluoro-6-methylphenanthridin-5(6H)-yl)sulfonyl]phenol] | significant decrease | increase | significantly lower | no effect |
| 186 to 188 | COc1cc(OC)cc(N2CCN(C(=O)[C@](C)(C#N)[C@H](c3ccccc3OC)c3cccc4ccccc34)CC2)c1 [Example 4, (S)-3-[4-(3,5-dimethoxyphenyl)piperazin-1-yl]-2-[(S)-(2-methoxyphenyl)(1-naphthyl)methyl]-2-methyl-3-oxopropanenitrile] |  |  |  |  |
|  | COc1ccccc1[C@H](c1cccc2ccccc12)[C@@](C)(C#N)C(=O)N1CCC(c2cccc(C(F)(F)F)c2)CC1 [Example 5, (S,S)-3-(2-methoxyphenyl)-2-methyl-3-(1-naphthyl)-2-({4-[3-(trifluoromethyl)phenyl]piperidin-1-yl}carbonyl)propanenitrile] | significant decrease | increase | significantly lower | no effect |

— patent US20050119324A1, “Methods of treating atherosclerosis using NF-kB inhibitors” (Wyeth, priority 2003, published 2005)
